According to patent US12109218B2, “Compositions of grapiprant and methods for using the same” (ARATANA THERAPEUTICS, INC., priority 2014, dated 2024):
Like-named read-outs stand apart in the source and are kept apart here.

Experiments:
[1] = tested on: dogs with naturally occurring osteoarthritis; assay: Dose ranging field study in osteoarthritic dogs, CBPI (Example 6); type: in vivo, dog; conditions: for median decrease from baseline PSS score: placebo 28; for median decrease from baseline PIS score: placebo 39.13; for Pain Interference Score (PIS), % change from Day 0 / Pain Severity Score (PSS), % change from Day 0: Formulation A34 tablets
Procedure: In a masked, multi-centered dose ranging field study, dogs with naturally occurring osteoarthritis were treated with grapiprant at 2 mg/kg once daily (SID), 5 mg/kg once daily, 4 mg/kg twice daily (BID), or placebo twice daily to assess the control of pain and inflammation. Dogs were randomly assigned to one of the four treatment groups and treated orally with Formulation A34 tablets of 20, 60, and 100 mg, or placebo tablets (matched to the 4 mg/kg group). (See above at Example 2, Table 4). The control of pain and inflammation was assessed by the owner using the validated Canine Brief Pain Inventory (CBPI) assessment tool, which consists of a pain severity score (PSS), a Pain Interference Score (PIS), and an Owner Impression of dog's quality of life. CBPI scoring, as well as a veterinarian assessment of osteoarthritis, were conducted at Study Day 0 (baseline) and Days 7, 14, 21, and 28.
In total 476 dogs were screened in the study with 108 screen failures, resulting in […] in the per protocol population.

[2] = tested on: mechanical hyperalgesia induced by carrageenan model; conditions: cited from earlier work
cat serum proteins = assay: Binding to cat serum proteins by equilibrium dialysis (Example 11); conditions: equilibrium dialysis (RED device)
Procedure: Grapiprant concentrations of 200 and 1000 ng/mL in cat serum were subjected to equilibrium dialysis using a Rapid Equilibrium Dialysis (RED) device.

[3] = Dose linearity and effect of feeding, PK in cats (Example 10); type: in vivo, cat; conditions: both sexes, serum, po, males and females; for Cmax: read-out: Mean Cmax; for AUC(0-inf): read-out: mean AUC0-∞; for Tmax: read-out: mean Tmax; for half-life: read-out: mean terminal half-life
Procedure: Grapiprant was blended in a mixture of excipients as shown in Table 14 and administered orally by capsule to male and female cats.
The day of dosing was defined as Day 0. Following dosing, the animals were evaluated for clinical signs. Blood samples were collected prior to dosing and at 0.25, 0.5, 1, 2, 4, 8, 12, and 24-hours postdose. The blood samples were processed to serum and analyzed for grapiprant concentration. There were no test article-related clinical signs. The mean grapiprant pharmacokinetic results were as follow in Table 16.

[4] = 2 mg/kg, Group 1 fed cats, single oral 2 mg/kg capsule
[5] = 2 mg/kg, Group 2 fasted cats, single oral 2 mg/kg capsule
[6] = 6 mg/kg, Group 3 fasted cats, single oral 6 mg/kg capsule
[7] = 10 mg/kg, Group 4 fasted cats, single oral 10 mg/kg capsule

Compound: CCc1nc2c(C)nc(C)cc2n1-c1ccc(CCNC(=O)NS(=O)(=O)c2ccc(C)cc2)cc1 [grapiprant, N-{2-[4-(2-ethyl-4,6-dimethyl-1H-imidazo[4,5-c]pyridin-1-yl)phenyl]ethyl}-N′-[(4-methylphenyl)sulfonyl]urea]
- control of pain and inflammation of osteoarthritis (PSS and PIS of the CBPI) ([1]; 2 mg/kg SID and 5 mg/kg SID doses): equally effective in controlling the pain and inflammation of osteoarthritis in dogs
- median decrease from baseline PSS score ([1]; 2 mg/kg SID): 48
- median decrease from baseline PIS score ([1]; 2 mg/kg SID): 53.25
- median decrease from baseline PSS score ([1]; 4 mg/kg BID): 44.44
- median decrease from baseline PIS score ([1]; 4 mg/kg BID): 52.27
- median decrease from baseline PSS score ([1]; 5 mg/kg SID): 48.53
- median decrease from baseline PIS score ([1]; 5 mg/kg SID): 55.27
- Pain Interference Score (PIS), % change from Day 0 ([1]; 2 mg/kg SID, Day 7, median): −27.97%
- Pain Severity Score (PSS), % change from Day 0 ([1]; 2 mg/kg SID, Day 7, median): −24.26%
- Pain Interference Score (PIS), % change from Day 0 ([1]; 2 mg/kg SID, Day 14, median): −33.33%
- Pain Severity Score (PSS), % change from Day 0 ([1]; 2 mg/kg SID, Day 14, median): −32.00%
- Pain Interference Score (PIS), % change from Day 0 ([1]; 2 mg/kg SID, Day 21, median): −47.83%
- Pain Severity Score (PSS), % change from Day 0 ([1]; 2 mg/kg SID, Day 21, median): −35.00%
- Pain Interference Score (PIS), % change from Day 0 ([1]; 2 mg/kg SID, Day 28, median): −53.25%
- Pain Severity Score (PSS), % change from Day 0 ([1]; 2 mg/kg SID, Day 28, median): −48.00%
- Pain Interference Score (PIS), % change from Day 0 ([1]; 4 mg/kg BID, Day 7, median): −28.57%
- Pain Severity Score (PSS), % change from Day 0 ([1]; 4 mg/kg BID, Day 7, median): −17.39%
- Pain Interference Score (PIS), % change from Day 0 ([1]; 4 mg/kg BID, Day 14, median): −35.24%
- Pain Severity Score (PSS), % change from Day 0 ([1]; 4 mg/kg BID, Day 14, median): −28.29%
- Pain Interference Score (PIS), % change from Day 0 ([1]; 4 mg/kg BID, Day 21, median): −42.11%
- Pain Severity Score (PSS), % change from Day 0 ([1]; 4 mg/kg BID, Day 21, median): −38.89%
- Pain Interference Score (PIS), % change from Day 0 ([1]; 4 mg/kg BID, Day 28, median): −52.27%
- Pain Severity Score (PSS), % change from Day 0 ([1]; 4 mg/kg BID, Day 28, median): −44.44%
- Pain Interference Score (PIS), % change from Day 0 ([1]; 5 mg/kg SID, Day 7, median): −26.92%
- Pain Severity Score (PSS), % change from Day 0 ([1]; 5 mg/kg SID, Day 7, median): −22.22%
- Pain Interference Score (PIS), % change from Day 0 ([1]; 5 mg/kg SID, Day 14, median): −40.00%
- Pain Severity Score (PSS), % change from Day 0 ([1]; 5 mg/kg SID, Day 14, median): −30.00%
- Pain Interference Score (PIS), % change from Day 0 ([1]; 5 mg/kg SID, Day 21, median): −53.85%
- Pain Severity Score (PSS), % change from Day 0 ([1]; 5 mg/kg SID, Day 21, median): −44.44%
- Pain Interference Score (PIS), % change from Day 0 ([1]; 5 mg/kg SID, Day 28, median): −55.27%
- Pain Severity Score (PSS), % change from Day 0 ([1]; 5 mg/kg SID, Day 28, median): −48.53%
- preliminary estimated mean effective canine dose ([1]; extrapolated from human PK/PD, protein binding and receptor affinity, confirmed in the field study): 2 mg/kg SID
- effect on mechanical hyperalgesia [2]: significantly reduces mechanical hyperalgesia
- percent bound (cat serum proteins; 200 ng/mL): 95%
- percent bound (cat serum proteins; 1000 ng/mL): 92%
- Cmax [3, 4]: 327 to 407 ng/mL
- AUC(0-inf) [3, 4]: 1070 to 1220 ng·h/mL
- Tmax [3, 4]: 1.33 to 1.65 h
- half-life [3, 4]: 2.4 to 3.12 h
- Cmax [3, 5]: 1100 to 1630 ng/mL
- AUC(0-inf) [3, 5]: 1970 to 2850 ng·h/mL
- Tmax [3, 5]: 1.01 h
- half-life [3, 5]: 1.47 to 2.16 h
- Cmax [3, 6]: 2970 to 3110 ng/mL
- AUC(0-inf) [3, 6]: 3750 to 6350 ng·h/mL
- Tmax [3, 6]: 0.99 to 1.17 h
- half-life [3, 6]: 2.79 to 4.98 h
- Cmax [3, 7]: 4280 to 7130 ng/mL
- AUC(0-inf) [3, 7]: 7580 to 10900 ng·h/mL
